Source: patent US6858638B2, “Substituted indazoles, compositions containing them, method of production and use” (Aventis Pharma S.A., priority 2002, dated 2005)

Target: CDK2/cyclinE kinase (Homo sapiens, UniProt P24941)
Test: CDK2/cyclinE kinase phosphorylation of Rb-biotinylated peptide, scintillation plates
Type: biochemical
Settings: read-out: CDK2 % inhib at 10 μM
Description: The inhibition of the CDK2/cyclinE kinase is evaluated by measuring the phosphorylation of the peptide substrate Rb-biotinylated, detected by […], in 96-well scintillation plates (Flashplates) coated with streptavidin.
Each point is assayed in duplicate.
Sequence of the Rb-biotinylated peptide: Biotin-[…]-OH
Protocol: • 1. Preparation of the substrate: fresh solution at 1 mg/ml in PBS. • 2. Introduce 4 μg per well into the scintillation plate. • 3. Incubate for 2 hours at ambient temperature. • 4. Prepare series of dilutions at 1 mM, 300 μM, 100 μM, 30 μM and 10 μM in DMSO from a stock solution of inhibitor at 10 mM in DMSO. • 5. Wash the scintillation plate with 3 times 300 μl of PBS to remove the unbound peptide substrate. • 6. Add the CDK2/cyclinE kinase: 200 ng per well, in 90 μl of kinase buffer (with the exception of the “without enzyme” control wells). • 7. Add the test inhibitor to each of the wells, at a final concentration for 100 μl of 10 μM, 3 μM, 1 μM, 0.3 μM and 0.1 μM. • 8. Agitate the scintillation plate gently for 1 minute. • 9. Incubate for 30 minutes on ice. • 10. Initiate the reaction with 10 μl of kinase buffer having a final concentration per well of 1 μM of cold ATP and of 1 μCi of ATP-^33P. • 11. […] Indirect measurement of the radioactivity corresponding to the incorporation of ATP-^33P, originating from the kinase, into the phosphorylation site of Rb. […]

| inhibition at 10 µM [%] | SMILES |
| --- | --- |
| 39 | Nc1n[nH]c2ccc(NS(=O)(=O)c3cccc(F)c3)cc12 [Example 26, N-(3-Amino-1H-indazol-5-yl)-3-fluorobenzenesulfonamide] |
| 73 | CS(=O)(=O)c1ccccc1S(=O)(=O)Nc1ccc2[nH]nc(-c3ccc(Cl)cc3)c2c1 [Example 30, N-[3-(4-Chlorophenyl)-1H-indazol-5-yl]-2-methylsulfonylbenzenesulfonamide] |
